Measured values reported in US7943797B2, “Products for the treatment of the iron chlorosis” (Tradecorp, S.A., priority 2006, dated 2011).

What was measured:
[1] = tested on: Soybean plants (Glycine max L. cv. Stine 0480) with induced Fe chlorosis; test: Efficacy of Fe chelates to provide Fe to soybean plants in hydroponics: SPAD index; assay type: in vivo; settings: for Regreening of plants (SPAD index): 20 days after treatment, regardless of the doses (5 and 10 μM)
Procedure: (§1) Soybean seeds (Glycine max L. cv. Stine 0480) were germinated at 30° C. and 60% RH on paper moistened with 1 M CaSO4 in dark for 2 days. Afterwards, seedlings were placed in 10 L containers (50 seedlings per container) filled with a 1/5 diluted EDTA buffered nutrient solution (macronutrients (mM)—1.0 Ca(NO3)2, 0.9 KNO3, 0.3 MgSO4, 0.1 KH2PO4; cationic micronutrients (μM)—5.0 EDTA/Fe^3+, 2.5 MnSO4, 1.0 CuSO4, 10 ZnSO4, 1.0 CoSO4, 1.0 NiCl2, 115.5 Na2EDTA; anionic micronutrients (μM)-35 NaCl, 10 H3BO3, 0.05 Na2MoO4; 0.1 mM HEPES) for 6 days. On the 7th day, in order to induce Fe chlorosis, seedlings were transferred to 12 L polypropylene buckets containing aerated full strength EDTA buffered nutrient solution but without Fe^3+-chelate. Plants were grown under these conditions until clear symptoms of Fe deficiency were observed (7 days) and then plants were placed in 2 L pots (6 plants per pot) covered with black plastic to avoid light exposure. The effect of different Fe chelates and doses were compared as Fe sources. Chelates used in the treatments were o,o-EDDHA/Fe^3+, o,p-EDDHA/Fe^3+, EDTA/Fe^3+ and Example 1/Fe^3+. The last one is the Fe chelate of the compound of the example 1: 2-(2-((2-hydroxybenzyl)amino)ethylamino)-2-(2-hydroxyphenyl)acetic acid (DCHA). Nutrient solution contained macronutrients and anionic micronutrients as for the seedling period and the following cationic micronutrients composition: (μM) 1.0 MnSO4, 0.5 CuSO4, 0.5 ZnSO4, 0.1 NiCl2 and 0.1 CoSO4. Also, 1 g·L^−1 of CaCO3 was added to the nutrient solution to buffer pH at 7.5 and to simulate conditions of a calcareous soil. Plants were grown for 21 days in this nutrient solution in a growth chamber provided with fluorescent and sodium vapour lamps with a 16 h/30° C. and 50% humidity day and 8 h/25° C. and 70% humidity night regime. Water was added every 2 days and the nutrient solution was renewed every 7 days. Treatments were replicated four times in a completely randomised design. Plants were harvested after 7, 14 and 21 days.
(§2) During the experiment, SPAD readings with a chlorophyll-meter (Minolta SPAD-502) were taken for all leaf stages (average of two or three readings per stage) every second day. Only values measured for the youngest fully open leaves (the 2nd stage at the 2nd day, the third at the 10th day and the fourth at the 20th day) are here presented (Table 1)

[2] = tested on: Soybean plants (Glycine max L. cv. Stine 0480) with induced Fe chlorosis; test: Efficacy of Fe chelates to provide Fe to soybean plants in hydroponics: Fe content in plants; assay type: in vivo
Procedure: as §1
Root and shoot were separated and washed using Tween 80 (Merck) and HCl solution and fresh and dry (after oven dry procedure) weights were determined. Samples were ground and after dry digestion in a muffle furnace (480° C.), ashes are dissolved in HCl. Fe, Mn, Cu and Zn were analysed by atomic absorption spectrometry.

[3] = tested on: Soybean plants (Glycine max L. cv. Stine 0480) with induced Fe chlorosis; test: Efficacy of Fe chelates to provide Fe to soybean plants in soil conditions: SPAD index; assay type: in vivo; settings: for SPAD index / Recovery from chlorosis (SPAD): calcareous soil; for Recovery from chlorosis (SPAD): two days after the treatment application
Procedure: (§3) Soybean seeds (Glycine max L. cv. Stine 0480) were germinated at 30° C. and 60% RH on paper moistened with 1 M CaSO4 in dark for 2 days. Afterwards, seedlings were placed in 10 L containers (50 seedlings per container) filled with a 1/5 diluted EDTA buffered nutrient solution (macronutrients (mM)—1.0 Ca(NO3)2, 0.9 KNO3, 0.3 MgSO4, 0.1 KH2PO4; cationic micronutrients (μM)—5.0 EDTA/Fe^3+, 2.5 MnSO4, 1.0 CuSO4, 10 ZnSO4, 1.0 CoSO4, 1.0 NiCl2, 115.5 Na2EDTA; anionic micronutrients (μM)—35 NaCl, 10 H3BO3, 0.05 Na2MoO4; 0.1 mM HEPES) for 4 days. Then, in order to induce Fe chlorosis, nutrient solution without iron was used for two more days and then plants were transplanted in 1 L pots (3 plants per pot) containing 700 g of a calcareous soil ([…] calcium carbonate, 89 g·Kg^−1 CaCO3 active, pH 7.70) and 300 g of lime sand covered with black plastic to avoid light exposure. The effect of different Fe chelates were compared as Fe sources: o,o-EDDHA/Fe^3+, o,p-EDDHA/Fe^3+, EDTA/Fe^3+ and Example 1/Fe^3+. The last one is the Fe chelate of the compound of the example 1: 2-(2-((2-hydroxybenzyl)amino)ethylamino)-2-(2-hydroxyphenyl)acetic acid. Plants were grown for 21 days in this soil conditions in a growth chamber provided with fluorescent and sodium vapour lamps with a 16 h/30° C. and 50% humidity day and 8 h/25° C. and 70% humidity night regime. Treatments were replicated five times in a completely randomised design. Single plants were harvested after 2, 7 and 21 days.
as §2, with “Values” for “Only values”, “the” for “the youngest fully open leaves (the”, “12th” for “10th”, “fourth and fifth” for “fourth”, “22th” for “20th”, “4).” for “1)”

[4] = tested on: Soybean plants (Glycine max L. cv. Stine 0480) with induced Fe chlorosis; test: Efficacy of Fe chelates in soil conditions: shoot dry weight and Fe concentration in leaves; assay type: in vivo; settings: calcareous soil, three sampling times
Procedure: as §3, with “Plants were grown for 21 days in this soil conditions in a growth chamber provided with fluorescent and sodium vapour lamps with a 16 h/30° C. and 50% humidity day and 8 h/25° C. and 70% humidity night regime. Treatments were replicated five times in a completely randomised design. Single plants were harvested after 2, 7 and 21 days.” left out
In each sampling time shoots were separated and washed using Tween 80 (Merck) and HCl solution and fresh and dry (after oven dry procedure) weights were determined. […] Fe, Mn, Cu and Zn were analysed by atomic absorption spectrometry.

[5] = compared with o,o-EDDHA/Fe^3+; Yunta et al. 2003; cited from earlier work
[6] = 5 μM chelate, 2 days after treatment (2nd stage)
[7] = 5 μM chelate, 10 days after treatment (3rd stage)
[8] = 5 μM chelate, 20 days after treatment (4th stage)
[9] = 10 μM chelate, 2 days after treatment (2nd stage)
[10] = 10 μM chelate, 10 days after treatment (3rd stage)
[11] = 10 μM chelate, 20 days after treatment (4th stage)
[12] = 5 μM chelate (low dose), 1st sampling 7 days after treatment
[13] = 5 μM chelate (low dose), 2nd sampling 14 days after treatment
[14] = 5 μM chelate (low dose), 3rd sampling 21 days after treatment
[15] = 10 μM chelate (high dose), 1st sampling 7 days after treatment
[16] = 10 μM chelate (high dose), 2nd sampling 14 days after treatment
[17] = 10 μM chelate (high dose), 3rd sampling 21 days after treatment
[18] = 2 days after treatment (2nd stage)
[19] = 12 days after treatment (3rd stage)
[20] = 22 days after treatment (4th stage)
[21] = 22 days after treatment (5th stage)

| Structure (SMILES) | SPAD index [1, 6] | SPAD index [1, 7] | SPAD index [1, 8] | SPAD index [1, 9] | SPAD index [1, 10] | SPAD index [1, 11] | Fe content [2, 12] | Fe content [2, 13] | Fe content [2, 14] | Fe content [2, 15] | Fe content [2, 16] | Fe content [2, 17] | Regreening of plants (SPAD index) [1] | SPAD index [3, 18] | SPAD index [3, 19] | SPAD index [3, 20] | SPAD index [3, 21] | Recovery from chlorosis (SPAD) [3] | other results |
| --- | --- | --- | --- | --- | --- | --- | --- | --- | --- | --- | --- | --- | --- | --- | --- | --- | --- | --- | --- |
| O=C([O-])CN(CCN(CC(=O)[O-])CC(=O)[O-])CC(=O)[O-].[Fe+3] [EDTA/Fe^3+] | 6.8 bcd | 6.9 days | 11.4 c | 8.1 abc | 16.6 c | 19.9 b | 14.2 c μg Fe per plant | 19.6 c μg Fe per plant | 22.6 c μg Fe per plant | 27.7 b μg Fe per plant | 32.6 b μg Fe per plant | 47.6 b μg Fe per plant |  |  |  |  |  |  |  |
| O=C(O)C(NCCNCc1ccccc1O)c1ccccc1O (stereo not shown) [Example 1, 2-(2-((2-hydroxybenzyl)amino)ethylamino)-2-(2-hydroxyphenyl)acetic acid] |  |  |  |  |  |  |  |  |  |  |  |  | completely regreened |  |  |  |  |  | Efficacy against iron chlorosis ([3]; highly calcareous soil, only one treatment application): efficient to solve iron chlorosis in highly calcareous conditions; Speed of action to correct iron chlorosis ([1]; low doses, similar to o,p-EDDHA, higher than o,o-EDDHA): fast action to correct iron chlorosis |
| O=C([O-])C(NCCNCc1ccccc1[O-])c1ccccc1[O-].[Fe+3] (stereo not shown) [Example 1/Fe^3+] | 8.4 abc | 32.8 a | 34.8 a | 8.8 ab | 35.7 a | 35.0 a | 57.4 a μg Fe per plant | 152 a μg Fe per plant | 268 a μg Fe per plant | 69.3 a μg Fe per plant | 136 a μg Fe per plant | 235 a μg Fe per plant |  | 23.9 | 41.0 | 34.1 | 26.6 | better recovery | Dry weight of shoots (FIG. 2) [4]: efficient Fe chlorosis corrector; Fe provided to plants compared with the other treatments ([2]; hydroponics, lower Fe application (5 μM)): significantly higher amounts of iron and faster |
| O=C([O-])C(NCCNC(C(=O)[O-])c1ccccc1[O-])c1ccccc1[O-].[Fe+3] (stereo not shown) [o,o-EDDHA/Fe^3+] | 6.2 cd | 26.7 b | 30.2 a | 9.1 ab | 31.6 ab | 32.4 a | 26.0 bc μg Fe per plant | 83.6 b μg Fe per plant | 202 b μg Fe per plant | 61.4 a μg Fe per plant | 129 a μg Fe per plant | 254 a μg Fe per plant | completely regreened | 22.4 | 42.1 | 34.1 | 28.8 |  |  |
| O=C([O-])C(NCCNC(C(=O)[O-])c1ccccc1[O-])c1ccc(O)cc1.[Fe+3] (stereo not shown) [o,p-EDDHA/Fe^3+] | 8.1 abc | 30.9 ab | 32.2 a | 10.4 a | 33.1 a | 32.9 a | 43.0 ab μg Fe per plant | 128 a μg Fe per plant | 223 b μg Fe per plant | 77.8 a μg Fe per plant | 129 a μg Fe per plant | 259 a μg Fe per plant | completely regreened | 25.8 | 41.2 | 33.0 | 21.0 | better recovery | Stability of the Fe3+ chelate [5]: lower stability |
